The record followed here is patent publication US12441703B2, “Carboxamides as modulators of sodium channels” (VERTEX PHARMACEUTICALS INCORPORATED, priority 2019, dated 2025).

pIC50: −log10 of the molar value.

human NaV 1.8, sequence (Q9Y5Y9 whole entry, looked up, the tested form may be a part): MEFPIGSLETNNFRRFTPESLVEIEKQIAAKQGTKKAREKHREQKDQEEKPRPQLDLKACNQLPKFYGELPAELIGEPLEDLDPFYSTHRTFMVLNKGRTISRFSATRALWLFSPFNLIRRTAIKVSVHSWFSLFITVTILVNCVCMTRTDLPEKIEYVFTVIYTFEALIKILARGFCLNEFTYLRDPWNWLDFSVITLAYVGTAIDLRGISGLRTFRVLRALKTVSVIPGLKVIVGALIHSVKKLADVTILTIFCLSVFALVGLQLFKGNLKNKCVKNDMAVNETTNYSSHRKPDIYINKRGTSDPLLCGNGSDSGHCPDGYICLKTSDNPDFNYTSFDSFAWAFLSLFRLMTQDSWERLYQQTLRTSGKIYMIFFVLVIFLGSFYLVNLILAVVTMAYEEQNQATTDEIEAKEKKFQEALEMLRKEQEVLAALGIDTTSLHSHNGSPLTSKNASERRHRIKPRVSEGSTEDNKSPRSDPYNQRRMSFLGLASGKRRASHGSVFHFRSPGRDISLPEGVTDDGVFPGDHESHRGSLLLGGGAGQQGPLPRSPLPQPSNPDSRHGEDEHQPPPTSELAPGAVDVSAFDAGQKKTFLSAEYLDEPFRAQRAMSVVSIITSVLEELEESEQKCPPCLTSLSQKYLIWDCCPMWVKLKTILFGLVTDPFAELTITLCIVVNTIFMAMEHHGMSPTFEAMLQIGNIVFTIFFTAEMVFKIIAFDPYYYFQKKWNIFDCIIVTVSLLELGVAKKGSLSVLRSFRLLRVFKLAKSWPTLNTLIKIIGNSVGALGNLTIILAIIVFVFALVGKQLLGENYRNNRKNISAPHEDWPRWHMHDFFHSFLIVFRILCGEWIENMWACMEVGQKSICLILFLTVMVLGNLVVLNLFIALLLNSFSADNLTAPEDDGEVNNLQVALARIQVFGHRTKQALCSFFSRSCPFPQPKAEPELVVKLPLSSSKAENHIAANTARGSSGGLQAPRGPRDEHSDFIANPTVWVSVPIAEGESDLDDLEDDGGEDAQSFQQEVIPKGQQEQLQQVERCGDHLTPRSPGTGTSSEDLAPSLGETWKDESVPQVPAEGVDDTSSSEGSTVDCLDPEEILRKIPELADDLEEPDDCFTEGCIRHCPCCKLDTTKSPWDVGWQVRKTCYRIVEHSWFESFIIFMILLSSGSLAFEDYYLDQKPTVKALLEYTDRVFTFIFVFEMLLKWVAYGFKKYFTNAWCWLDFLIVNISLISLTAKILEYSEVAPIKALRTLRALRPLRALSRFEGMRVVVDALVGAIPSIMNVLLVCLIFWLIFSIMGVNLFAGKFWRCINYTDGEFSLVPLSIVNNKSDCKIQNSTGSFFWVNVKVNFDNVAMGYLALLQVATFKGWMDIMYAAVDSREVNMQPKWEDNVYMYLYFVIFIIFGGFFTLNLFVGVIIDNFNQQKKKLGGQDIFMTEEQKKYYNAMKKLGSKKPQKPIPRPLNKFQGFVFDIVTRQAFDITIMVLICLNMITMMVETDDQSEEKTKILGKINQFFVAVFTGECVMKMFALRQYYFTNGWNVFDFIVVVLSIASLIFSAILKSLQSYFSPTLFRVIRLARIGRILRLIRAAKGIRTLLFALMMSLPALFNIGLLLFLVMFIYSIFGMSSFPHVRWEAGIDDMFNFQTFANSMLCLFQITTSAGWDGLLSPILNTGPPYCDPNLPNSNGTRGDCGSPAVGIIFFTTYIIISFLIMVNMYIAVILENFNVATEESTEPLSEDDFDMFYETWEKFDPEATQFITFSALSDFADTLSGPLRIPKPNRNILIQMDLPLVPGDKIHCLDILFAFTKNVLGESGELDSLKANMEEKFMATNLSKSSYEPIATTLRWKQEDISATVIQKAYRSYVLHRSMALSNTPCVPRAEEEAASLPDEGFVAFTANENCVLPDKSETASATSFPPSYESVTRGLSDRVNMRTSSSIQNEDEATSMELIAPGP

The experiment concerns the target human NaV 1.8 (Homo sapiens, UniProt Q9Y5Y9). In words: E-VIPR assay for detecting and measuring NaV inhibition properties. The conditions noted are these: E-VIPR assay conducted in the presence of human serum; HEK cells expressing truncated human NaV 1.8; read-out: IC50. The format is cell-based. From the text: Sodium ion channels are voltage-dependent proteins that can be activated by inducing membrane voltage changes by applying electric fields. The electrical stimulation instrument and methods of use, referred to as E-VIPR, are described in International Publication No. WO 2002/008748 A3 and C.-J. Huang et al. Characterization of voltage-gated sodium channel blockers by electrical stimulation and fluorescence detection of membrane potential, 24 Nature Biotech. 439-46 (2006), both of which are incorporated by reference in their entirety. The instrument comprises a microtiter plate handler, an optical system for exciting the coumarin dye while simultaneously recording the coumarin and oxonol emissions, a waveform generator, a current- or voltage-controlled amplifier, and parallel electrode pairs that are inserted into assay plate wells. Under integrated computer control, this instrument passes user-programmed electrical stimulus protocols to cells within the wells of the microtiter plate.
16-20 hours prior to running the assay on E-VIPR, HEK cells expressing a truncated form of human NaV 1.8 with full channel activity were seeded into microtiter 384-well plates, pre-coated with matrigel, at a density of 25,000 cells per well. 2.5-5% KIR2.1 Bacmam virus was added to the final cell suspension before seeding into cell plates. HEK cells were grown in Dulbecco's Modified Eagle's Medium (DMEM) supplemented with 10% FBS (Fetal Bovine Serum, qualified; Sigma #F4135), 1% NEAA (Non-Essential Amino Acids, Gibco #11140), 1% HEPES (Gibco #15630), 1% Pen-Strep (Penicillin-Streptomycin; Gibco #15140) and 5 μg/ml Blasticidin (Gibco #R210-01). Cells were expanded in vented cap cell culture flasks, with 90-95% humidity and 5% CO2.
Compound Loading Buffer (2× concentration): Na/TMA Cl Bath1 Buffer containing HS (omitted in experiments run in the absence of human serum (HS)) 50%, VABSC-1 1 mM, BSA 0.2 mg/ml (in Bath-1), KCl 9 mM, DMSO 0.75%.
• 1) To reach the final concentration in each well, 400 nL of each compound was pre-spotted (in neat DMSO) into polypropylene compound plates at 250× desired final concentration from an intermediate stock concentration of 0.075 mM, in an 11 point dose response, 3-fold dilution, resulting in a top dose of 300 nM final concentration in the cell plate. Vehicle control (neat DMSO), and positive control (an established NaV1.8 inhibitor, 25 μM final in assay in DMSO) were added manually to the outermost columns of each plate respectively. The compound plate was backfilled with 45 μL per well of Compound Loading Buffer resulting in a 250 fold dilution of compound following a 1:1 transfer of compound into the cell plate (see Step 6). Final DMSO concentration for all wells in the assay was 0.625% (0.75% DMSO was supplemented to the Compound Loading Buffer for a final DMSO concentration of 0.625%). This assay dilution protocol was adjusted to enable a higher dose range to be tested in the presence of HS or if the final assay volume was altered. • 2) Hexyl Dye Solution was prepared. • 3) Cell plates were prepared. On the day of the assay, the media was aspirated, and the cells were washed three times with 80 μL of Bath-1 buffer, maintaining 25 μL residual volume in each well. • 4) 25 μL per well of Hexyl Dye Solution was dispensed into the cell plates. The cells were incubated for 20 minutes at room temperature or ambient conditions in darkness. • 5) 45 μL per well of Compound Loading Buffer was dispensed into compound plates. • 6) The cell plates were washed three times with 80 μL per well of Bath-1 Buffer, leaving 25 µL of residual volume. Then 25 μL per well from compound plate was transferred to each cell plate. The mixture was incubated for 30 minutes at room temperature/ambient conditions. • 7) The cell plate containing compound was read on E-VIPR using the current-controlled amplifier to deliver stimulation wave pulses using a symmetrical biphasic waveform. […]
With “4-[[2-(4-fluoro-2-methoxy-phenyl)-4-(trifluoromethyl)benzoyl]amino]pyridine-2-carboxamide [Compound 175]”, the pIC50 was less than 5.52. With `COc1cc(OC(F)(F)F)ccc1Oc1cc(C2CCC(C(F)(F)F)CC2)ccc1C(=O)Nc1ccnc(C(N)=O)c1` (single isomer, unassigned) [158 (first diastereomer), 4-[[2-[2-methoxy-4-(trifluoromethoxy)phenoxy]-4-[4-(trifluoromethyl)cyclohexyl]benzoyl]amino]pyridine-2-carboxamide] the figure was 6.02; with `COc1cc(OC(F)(F)F)ccc1Oc1cc(C2CCC(C(F)(F)F)CC2)ccc1C(=O)Nc1ccnc(C(N)=O)c1` (single isomer, unassigned) [158 (second diastereomer), 4-[[2-[2-methoxy-4-(trifluoromethoxy)phenoxy]-4-[4-(trifluoromethyl)cyclohexyl]benzoyl]amino]pyridine-2-carboxamide], 6.40. In the case of `COc1cc(OC(F)(F)F)ccc1Oc1cc(C2CCC(C(F)(F)F)CC2)cc(F)c1C(=O)Nc1ccnc(C(N)=O)c1` (single isomer, unassigned) [168 (first diastereomer), 4-[[2-fluoro-6-[2-methoxy-4-(trifluoromethoxy)phenoxy]-4-[4-(trifluoromethyl)cyclohexyl]benzoyl]amino]pyridine-2-carboxamide], the pIC50 was 7.74. With `COc1cc(OC(F)(F)F)ccc1Oc1cc(C2CCC(C(F)(F)F)CC2)cc(F)c1C(=O)Nc1ccnc(C(N)=O)c1` (single isomer, unassigned) [168 (second diastereomer), 4-[[2-fluoro-6-[2-methoxy-4-(trifluoromethoxy)phenoxy]-4-[4-(trifluoromethyl)cyclohexyl]benzoyl]amino]pyridine-2-carboxamide] the figure was 8.00. For the molecule `COc1cc(OC(F)(F)F)ccc1Oc1cc(C2CCC(C(C)(C)C)CC2)cc(F)c1C(=O)Nc1ccnc(C(N)=O)c1` (single isomer, unassigned) [169 (first diastereomer), 4-[[4-(4-tert-butylcyclohexyl)-2-fluoro-6-[2-methoxy-4-(trifluoromethoxy)phenoxy]benzoyl]amino]pyridine-2-carboxamide], the pIC50 was 7.96.

Turning to `COc1cc(OC(F)(F)F)ccc1Oc1cc(C2CCC(C(C)(C)C)CC2)cc(F)c1C(=O)Nc1ccnc(C(N)=O)c1` (single isomer, unassigned) [169 (second diastereomer), 4-[[4-(4-tert-butylcyclohexyl)-2-fluoro-6-[2-methoxy-4-(trifluoromethoxy)phenoxy]benzoyl]amino]pyridine-2-carboxamide], the pIC50 is 7.68.

For `[2H]C([2H])([2H])Oc1cc(OC(F)(F)F)ccc1Oc1cc(C2CCC(OC)CC2)cc(F)c1C(=O)Nc1ccnc(C(N)=O)c1` (single isomer, unassigned) [1017 (first diastereomer), 4-[[2-fluoro-4-(4-methoxycyclohexyl)-6-[2-(trideuteriomethoxy)-4-(trifluoromethoxy)phenoxy]benzoyl]amino]pyridine-2-carboxamide], the negative-log IC50 (pIC50) was 6.60.

Turning to `[2H]C([2H])([2H])Oc1cc(OC(F)(F)F)ccc1Oc1cc(C2CCC(OC)CC2)cc(F)c1C(=O)Nc1ccnc(C(N)=O)c1` (single isomer, unassigned) [1017 (second diastereomer), 4-[[2-fluoro-4-(4-methoxycyclohexyl)-6-[2-(trideuteriomethoxy)-4-(trifluoromethoxy)phenoxy]benzoyl]amino]pyridine-2-carboxamide], the pIC50 was 7.77. In the case of `COc1cc(OC(F)(F)F)ccc1Oc1cc(C2CCC(OC)CC2)ccc1C(=O)Nc1ccnc(C(N)=O)c1` (single isomer, unassigned) [1032 (first diastereomer), 4-[[4-(4-methoxycyclohexyl)-2-[2-methoxy-4-(trifluoromethoxy)phenoxy]benzoyl]amino]pyridine-2-carboxamide] it was 6.28; in that of `COc1cc(OC(F)(F)F)ccc1Oc1cc(C2CCC(OC)CC2)ccc1C(=O)Nc1ccnc(C(N)=O)c1` (single isomer, unassigned) [1032 (second diastereomer), 4-[[4-(4-methoxycyclohexyl)-2-[2-methoxy-4-(trifluoromethoxy)phenoxy]benzoyl]amino]pyridine-2-carboxamide], 5.81; in that of `COc1nc(Cl)ccc1Oc1ccc(C(F)(F)F)cc1C(=O)Nc1ccnc(C(N)=O)c1` [Compound 1, 4-[[2-[(6-Chloro-2-Methoxy-3-Pyridyl)Oxy]-5-(Trifluoromethyl)Benzoyl]Amino]Pyridine-2-Carboxamide], 6.41. With `CC(C)Oc1ccc(Oc2ccc(C(F)(F)F)cc2C(=O)Nc2ccnc(C(N)=O)c2)cc1Cl` [Compound 2, 4-[[2-(3-chloro-4-isopropoxy-phenoxy)-5-(trifluoromethyl)benzoyl]amino]pyridine-2-carboxamide] the figure was 6.35. In the case of `Cc1cc(Oc2ccc(C(F)(F)F)cc2C(=O)Nc2ccnc(C(N)=O)c2)ccc1F` [Compound 3, 4-[[2-(4-fluoro-3-methyl-phenoxy)-5-(trifluoromethyl)benzoyl]amino]pyridine-2-carboxamide] it was 5.85. Take `Cc1cc(F)ccc1Oc1ccc(C(F)(F)F)cc1C(=O)Nc1ccnc(C(N)=O)c1` [Compound 4, 4-[[2-(4-fluoro-2-methyl-phenoxy)-5-(trifluoromethyl)benzoyl]amino]pyridine-2-carboxamide]: the pIC50 was 6.19. In the case of `NC(=O)c1cc(NC(=O)c2cc(C(F)(F)F)ccc2Oc2ccc(F)cc2Cl)ccn1` [Compound 5, 4-[[2-(2-chloro-4-fluoro-phenoxy)-5-(trifluoromethyl)benzoyl]amino]pyridine-2-carboxamide] it was 5.92; in that of `NC(=O)c1cc(NC(=O)c2cc(C(F)(F)F)ccc2Oc2ccc(F)c(F)c2)ccn1` [Compound 6, 4-[[2-(3,4-difluorophenoxy)-5-(trifluoromethyl)benzoyl]amino]pyridine-2-carboxamide], 5.77. With `CC(C)Oc1ccc(Oc2ccc(C(F)(F)F)cc2C(=O)Nc2ccnc(C(N)=O)c2)cc1F` [Compound 7, 4-[[2-(3-fluoro-4-isopropoxy-phenoxy)-5-(trifluoromethyl)benzoyl]amino]pyridine-2-carboxamide] the figure was 6.18; with `COc1cc(F)ccc1Oc1ccc(C(F)(F)F)cc1C(=O)Nc1ccnc(C(N)=O)c1` [Compound 8, 4-[[2-(4-fluoro-2-methoxy-phenoxy)-5-(trifluoromethyl)benzoyl]amino]pyridine-2-carboxamide], 6.29; with `CC(C)Oc1ccc(Oc2ccc(C(F)(F)F)cc2C(=O)Nc2ccnc(C(N)=O)c2)cc1` [Compound 9, 4-[[2-(4-isopropoxyphenoxy)-5-(trifluoromethyl)benzoyl]amino]pyridine-2-carboxamide], 5.89. In the case of `NC(=O)c1cc(NC(=O)c2cc(C(F)(F)F)ccc2Oc2ccc(F)c3c2OCC3)ccn1` [Compound 10, 4-[[2-[(4-fluoro-2,3-dihydrobenzofuran-7-yl)oxy]-5-(trifluoromethyl)benzoyl]amino]pyridine-2-carboxamide] it was 6.19. Turning to `NC(=O)c1cc(NC(=O)c2cc(C(F)(F)F)ccc2Oc2ccc(F)c(Cl)c2)ccn1` [Compound 11, 4-[[2-(3-chloro-4-fluoro-phenoxy)-5-(trifluoromethyl)benzoyl]amino]pyridine-2-carboxamide], the negative-log IC50 (pIC50) was 5.85.
